Laboratory results published in US5440036A, “1,4-benzoxazine derivatives” (SS Pharmaceutical Co., Ltd., priority 1992, dated 1995).

Each compound was assayed on endothelium-ablated preparations of the rat aorta (assay: Vasorelaxing effect to endothelium-ablated preparations of the rat aorta). Settings: 10 min; endothelium-ablated rat aorta rings, contraction by 30 mM K^+, 37° C., sample compound cumulatively applied at intervals of 10 minutes; read-out: IC50 (50% inhibition concentration).
Experimental: Vasorelaxing effect to endothelium-ablated preparations of the rat aorta:
The aorta of each rat (body weight: 200 to 330 g) was isolated and cut at a width of about 3 mm. Endothelium was then ablated off to form a ring preparation. That preparation was incubated at 37° C., and then suspended under a load of 2 g in 10 ml of the Krebs-Henseleit solution which had been aerated with a mixed gas (95% O2, 5% CO2). Tension was isometrically recorded via an FD transducer ("T2-30-240", trade name; manufactured by Orientec) and a dynamic strain gauge ("6M81", trade name; manufactured by NEC-San-ei) Upon an elapsed time of 60 minutes or longer subsequent to the suspension, that is, after the preparation had become stable, 10^-7 M noradrenaline (Nor) was applied several times. Under contraction by 10^-7 M Nor, 10^-7 acetylcholine was applied. Preparations which were not relaxed by the application of 10^-7 acetylcholine were used in the experiment. 30 mM K^+ were applied. From the time point that its contraction had became uniform, a sample compound was cumulatively applied at intervals of 10 minutes so that the 50% inhibition concentration (IC50) was calculated.

| Compound | IC50 [nM] |
| --- | --- |
| CC1(C)Oc2ccc(C#N)cc2[C@@H](N2CCCC2=O)[C@@H]1O (racemic) [Cromakalim, (±)-trans-6-cyano-2,2-dimethyl-4-(2-oxopyrrolidin-1-yl)-3,4-dihydro-2H-1-benzopyran-3-ol, reference compound] | 134 |
| CCC1(CC)CN(NC(C)=O)c2cc(C(F)(F)F)ccc2O1 [compound 24] | 37.9 |
| CC(=O)NN1CC(C)(C)Oc2ccc(S(=O)(=O)C(F)(F)C(F)(F)F)cc21 [compound 27] | 33.6 |
| CCC(=O)NN1CC(C)(C)Oc2ccc(S(=O)(=O)C(F)(F)F)cc21 [compound 57] | 15.2 |
| CC1(C)CN(NC(=O)c2cccnc2)c2cc(S(=O)(=O)C(F)(F)F)ccc2O1 [compound 58] | 14.3 |
| CC(=O)NN1CC(C)(C)Oc2ccc(S(=O)(=O)C(F)(F)F)cc21 [compound 56] | 9.6 |
| CCC(=O)NN1CC(C)(C)Oc2ccc([N+](=O)[O-])cc21 [Compound No. 8, 2,2-Dimethyl-6-nitro-4-propanoylamino-1,4-benzoxazine] | 12.6 |
| C=CC(=O)NN1CC(C)(C)Oc2ccc([N+](=O)[O-])cc21 [compound 11] | 28.8 |
| CC1(C)CN(NC(=O)c2cccnc2)c2cc(C(F)(F)F)ccc2O1 [compound 20] | 51.4 |
